Target: T1, recombinant human Meningioma Expressed Antigen 5 (MGEA5), also referred to as O-GlcNAcase (OGA) (Homo sapiens, UniProt O60502)
T1 construct: Full length OGA enzyme was purchased at OnGene (cat #TP322411); purchased OnGene (so in the source)
T1 sequence (O60502 1-916): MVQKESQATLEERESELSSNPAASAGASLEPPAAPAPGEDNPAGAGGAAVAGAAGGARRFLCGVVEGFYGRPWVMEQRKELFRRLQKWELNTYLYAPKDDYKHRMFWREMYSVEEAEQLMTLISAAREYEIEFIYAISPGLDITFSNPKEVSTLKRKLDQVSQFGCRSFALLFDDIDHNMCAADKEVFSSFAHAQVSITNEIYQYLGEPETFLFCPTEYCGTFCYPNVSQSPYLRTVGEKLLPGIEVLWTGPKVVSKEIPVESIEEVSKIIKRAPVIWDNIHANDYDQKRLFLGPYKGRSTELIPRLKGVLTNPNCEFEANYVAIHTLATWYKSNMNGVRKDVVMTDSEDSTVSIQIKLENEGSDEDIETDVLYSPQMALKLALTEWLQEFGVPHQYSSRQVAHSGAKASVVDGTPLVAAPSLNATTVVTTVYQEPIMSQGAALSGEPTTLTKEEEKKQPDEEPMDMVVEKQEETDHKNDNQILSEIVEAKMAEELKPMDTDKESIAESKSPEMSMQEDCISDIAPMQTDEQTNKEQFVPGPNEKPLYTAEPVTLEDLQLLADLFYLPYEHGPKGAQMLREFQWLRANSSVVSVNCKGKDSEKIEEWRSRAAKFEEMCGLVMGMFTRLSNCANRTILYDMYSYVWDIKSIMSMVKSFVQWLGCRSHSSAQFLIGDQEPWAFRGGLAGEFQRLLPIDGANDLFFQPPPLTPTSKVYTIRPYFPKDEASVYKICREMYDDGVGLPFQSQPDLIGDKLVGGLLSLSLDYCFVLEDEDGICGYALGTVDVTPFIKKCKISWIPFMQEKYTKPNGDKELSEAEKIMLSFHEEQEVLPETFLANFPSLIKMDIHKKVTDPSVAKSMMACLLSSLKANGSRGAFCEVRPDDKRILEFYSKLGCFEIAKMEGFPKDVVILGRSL
Assay: OGA biochemical assay (inhibition of FM-GlcNAc hydrolysis, fluorescence)
Conditions: for Emax / Enzymatic Emax (%): maximal effect; for Emax: read-out: Enzymatic Emax (%); for IC50: read-out: Enzymatic hOGA, pIC50 (converted)
Description: The assay is based on the inhibition of the hydrolysis of fluorescein mono-β-D-N-Acetyl-Glucosamine (FM-GlcNAc) (Mariappa et al. 2015, Biochem J 470:255) by the recombinant human Meningioma Expressed Antigen 5 (MGEA5), also referred to as O-GlcNAcase (OGA). The hydrolysis FM-GlcNAc (Marker Gene technologies, cat #M1485) results in the formation of β-D-N-glucosamineacetate and fluorescein. The fluorescence of the latter can be measured at excitation wavelength 485 nm and emission wavelength 538 nm. An increase in enzyme activity results in an increase in fluorescence signal. Full length OGA enzyme was purchased at OnGene (cat #TP322411). The enzyme was stored in 25 mM Tris.HCl, pH 7.3, 100 mM glycine, 10% glycerol at −20° C. Thiamet G and GlcNAcStatin were tested as reference compounds (Yuzwa et al. 2008 Nature Chemical Biology 4:483; Yuzwa et al. 2012 Nature Chemical Biology 8:393). The assay was performed in 200 mM Citrate/phosphate buffer supplemented with 0.005% Tween-20. 35.6 g Na2HPO42H2O (Sigma, #C0759) were dissolved in 1 L water to obtain a 200 mM solution. 19.2 g citric acid (Merck, #1.06580) was dissolved in 1 L water to obtain a 100 mM solution. pH of the sodiumphosphate solution was adjusted with the citric acid solution to 7.2. The buffer to stop the reaction consists of a 500 mM Carbonate buffer, pH 11.0. 734 mg FM-GlcNAc were dissolved in 5.48 mL DMSO to obtain a 250 mM solution and was stored at −20° C. OGA was used at a 2 nM concentration and FM-GlcNAc at a 100 uM final concentration. Dilutions were prepared in assay buffer.
50 nl of a compound dissolved in DMSO was dispensed on Black Proxiplate TM 384 Plus Assay plates (Perkin Elmer, #6008269) and 3 μl fl-OGA enzyme mix added subsequently. Plates were pre-incubated for 60 min at room temperature and then 2 μl FM-GlcNAc substrate mix added. […] Plates were briefly centrifuged for 1 min at 1000 rpm and incubate at room temperature for 6 h. To stop the reaction 5 μl STOP buffer were added and plates centrifuge again 1 min at 1000 rpm. Fluorescence was quantified in the Thermo Scientific Fluoroskan Ascent or the PerkinElmer EnVision with excitation wavelength 485 nm and emission wavelength 538 nm.
For analysis a best-fit curve is fitted by a minimum sum of squares method. From this an IC50 value and Hill coefficient was obtained. High control (no inhibitor) and low control (saturating concentrations of standard inhibitor) were used to define the minimum and maximum values.

| Emax | IC50 | Enzymatic Emax (%) | Structure (SMILES) |
| --- | --- | --- | --- |
| 98% | 0.316 µM |  | Cc1cc(OC[C@@H]2CCCN(C(C)c3ccc4c(n3)OCCO4)C2)cc(C)n1 (mixture of isomers) [Product 20] |
| 102% | 0.126 µM |  | Cc1cc(C[C@H]2CCCN(C(C)c3ccc4c(c3)OCC(=O)N4)C2)cc(C)n1 (mixture of isomers) [Product 58] |
| 77% | 3.16 µM |  | Cc1cc(C[C@H]2CCCN(C(C)c3ccc4c(n3)OCC(=O)N4C)C2)cc(C)n1 (mixture of isomers) [Product 62] |
| 1% | > 10 µM |  | Cc1cc(C[C@H]2CCCN(C(C)c3cc4c(cc3C)OCCO4)C2)cc(C)n1 (mixture of isomers) [Product 126] |
| 102% | 0.2 µM |  | COc1cc(NC[C@@H]2CCCN(C(C)c3ccc4c(n3)OCCO4)C2)cc(C)n1 (mixture of isomers) [Product 27] |
| 102% | 0.00316 µM |  | Cc1cc([C@H]2CCCN([C@@H](C)c3ccc4c(c3)OCC4)C2)cc(C)n1 (single isomer, unassigned) [Product 5] |
| 101% | 0.126 µM |  | Cc1cc([C@@H]2CCCN([C@H](C)c3ccc4c(c3)OCC4)C2)cc(C)n1 (single isomer, unassigned) [Product 6] |
| 103% | 0.0794 µM |  | COc1cc(NC[C@H]2CCCN(C(C)c3ccc4c(n3)OCCO4)C2)cc(C)n1 (single isomer, unassigned) [Product 25] |
| 99% | 1 µM |  | COc1cc(NC[C@@H]2CCCN(C(C)c3ccc4c(n3)OCCO4)C2)cc(C)n1 (single isomer, unassigned) [Product 28] |
|  | 0.0794 µM | 97% | COc1cc(NC[C@@H]2CCCN(C(C)c3ccc4c(n3)OCCO4)C2)cc(C)n1 (single isomer, unassigned) [Product 29] |
| 99% | 0.398 µM |  | Cc1cc(NC[C@H]2CCCN([C@H](C)c3ccc4c(n3)OCCO4)C2)cc(C(F)(F)F)n1 (single isomer, unassigned) [Product 32] |
|  | 0.2 µM | 100% | Cc1cc(NCC2CCCN(C(C)c3ccc4c(n3)OCCO4)C2)cc(C(F)(F)F)n1 (single isomer, unassigned) [Product 34] |
|  | 2.51 µM | 88% | Cc1cc(NCC2CCCN(C(C)c3ccc4c(n3)OCCO4)C2)cc(C(F)(F)F)n1 (single isomer, unassigned) [Product 35] |
| 94% | 1 µM |  | Cc1cc(C[C@H]2CCCN([C@H](C)c3cc4c(cc3F)OCCO4)C2)cc(C)n1 (single isomer, unassigned) [Product 41] |
| 98% | 0.501 µM |  | Cc1cc(C[C@H]2CCCN(C(C)c3ccc4c(n3)OCCO4)C2)cc(C)n1 (single isomer, unassigned) [Product 45] |
| 101% | 0.2 µM |  | Cc1cc(C[C@H]2CCCN(C(C)c3cnc4c(c3)OCCN4)C2)cc(C)n1 (single isomer, unassigned) [Product 51] |
|  | 3.16 µM | 78% | Cc1cc(C[C@H]2CCCN(C(C)c3ccc4c(n3)OCC(=O)N4)C2)cc(C)n1 (single isomer, unassigned) [Product 60] |

| Emax | IC50 | Enzymatic Emax (%) | Structure (SMILES) |
| --- | --- | --- | --- |
| 97% | 0.501 µM |  | Cc1cc(C[C@H]2CCCN([C@@H](C)c3cnc4c(c3)OCCO4)C2)cc(C)n1 (single isomer, unassigned) [Product 131] |
| 98% | 0.501 µM |  | Cc1cc([C@@H]2CCCN([C@H](C)c3cc4c(cc3F)OCCO4)C2)cc(C(F)(F)F)n1 (single isomer, unassigned) [Product 141] |
| 52% |  |  | Cc1cc([C@H]2CCCN([C@H](C)c3cc4c(cc3F)OCCO4)C2)cc(C(F)(F)F)n1 (single isomer, unassigned) [Product 142] |
| 87% | 2.51 µM |  | Cc1cc([C@@H]2CCCN([C@@H](C)c3cc4c(cc3F)OCCO4)C2)cc(C(F)(F)F)n1 (single isomer, unassigned) [Product 143] |
| 99% | 0.00316 µM |  | Cc1cc([C@H]2CCCN([C@@H](C)c3cc4c(cc3F)OCCO4)C2)cc(C(F)(F)F)n1 (single isomer, unassigned) [Product 144] |
| 97% | 0.794 µM |  | Cc1cc([C@H]2CCCN([C@H](C)c3ccc4c(c3)OCC4)C2)cc(C)n1 [Product 3] |
| 96% | 0.501 µM |  | Cc1cnc(C)c(C2CCCN(C(C)c3ccc4c(n3)OCCO4)C2)n1 (stereo not shown) [Product 12] |
| 99% | 0.0794 µM |  | Cc1cc(O[C@@H]2CCCN([C@@H](C)c3cnc4c(c3)OCCN4)C2)cc(C(F)(F)F)n1 [Product 17] |
| 102% | 0.00501 µM |  | Cc1cc(NCC2CCCN(C(C)c3cc4c(cc3F)OCCO4)C2)cc(C)n1 (stereo not shown) [Product 37] |
| 102% | 0.00631 µM |  | COc1cc(NCC2CCCN(C(C)c3cc4c(cc3F)OCCO4)C2)cc(C)n1 (stereo not shown) [Product 38] |
| 92% | 0.794 µM |  | Cc1cc(C[C@H]2CCCN(Cc3cc4c(cc3C)OCCO4)C2)cc(C)n1 [Product 39] |
| 94% | 0.794 µM |  | Cc1cc(C[C@H]2CCCN(Cc3cnc4c(c3)OCCN4C)C2)cc(C)n1 [Product 53] |
| 78% | 3.16 µM |  | Cc1cc(C[C@H]2CCCN(Cc3ccc4c(n3)OCC(=O)N4)C2)cc(C)n1 [Product 54] |
| 90% | 1.26 µM |  | Cc1cc(C[C@H]2CCCN(Cc3cnc4c(c3)OCC(=O)N4)C2)cc(C)n1 [Product 55] |
| 102% | 0.2 µM |  | COc1cc(C[C@H]2CCCN([C@@H](C)c3ccc4c(n3)OCCO4)C2)cc(C)n1 [Product 65] |
| 10% | > 10 µM |  | Cc1cc(C[C@H]2CCCN(Cc3cnc4c(c3)OCC(=O)N4C)C2)cc(C)n1 [Product 127] |
| 96% | 0.158 µM |  | CC(c1ccc2c(n1)OCCO2)N1CCCC(Oc2ncc(F)cc2F)C1 (stereo not shown) [Product 134] |
